Like-named read-outs stand apart in the source and are kept apart here.
Experiments:
[1] = biological target: VEGFR1 (Homo sapiens, UniProt P17948); assay: Radioactive filter binding kinase assay, VEGFR1; assay type: biochemical
[2] = biological target: CHK2 (Homo sapiens, UniProt O96017); assay: Radioactive filter binding kinase assay, CHK2; assay type: biochemical
[3] = system: caspase-3; assay: Caspase-3 colorimetric activity assay; assay type: cell-based, Human; conditions: HL-60, 10 μmol/L, 48 h
[4] = system: HL-60 cells; assay: LDH release assay; assay type: cell-based, Human
[5] = system: HL-60 cells; assay: Cell cycle analysis by flow cytometry; assay type: cell-based, Human
[6] = system: HL-60 cells; assay: Mitochondrial membrane potential measurement; assay type: cell-based, Human; conditions: HL-60, 10 μmol/L, JC-1, from 6 h
[7] = biological target: Aurora B (Homo sapiens, UniProt Q96GD4); assay: Radioactive filter binding kinase assay, Aurora B; conditions: read-out: percent inhibition Aurora B
[8] = biological target: MNK2 (Homo sapiens, UniProt Q9HBH9); assay: Radioactive filter binding kinase assay, MNK2; conditions: read-out: percent inhibition MNK2
[9] = system: HL-60 cells; assay: Annexin V-FITC/propidium iodide labeling, confocal imaging; assay type: cell-based, Human; conditions: HL-60, 5 and 10 μmol/L, 48 h
[10] = system: HL-60 cells; assay: Drug accumulation assay; assay type: cell-based, Human; conditions: HL-60, 2 h incubation, emission 446 nm
[11] = system: MOLT-4 cells; conditions: MOLT-4 cells ref 16; cited from earlier work
[12] = read-out: IC50 VEGFR1, mean±SD (n=3)
[13] = read-out: IC50 CHK2, mean±SD (n=3)

Sequence of VEGFR1 (P17948 27-1338, species assumed): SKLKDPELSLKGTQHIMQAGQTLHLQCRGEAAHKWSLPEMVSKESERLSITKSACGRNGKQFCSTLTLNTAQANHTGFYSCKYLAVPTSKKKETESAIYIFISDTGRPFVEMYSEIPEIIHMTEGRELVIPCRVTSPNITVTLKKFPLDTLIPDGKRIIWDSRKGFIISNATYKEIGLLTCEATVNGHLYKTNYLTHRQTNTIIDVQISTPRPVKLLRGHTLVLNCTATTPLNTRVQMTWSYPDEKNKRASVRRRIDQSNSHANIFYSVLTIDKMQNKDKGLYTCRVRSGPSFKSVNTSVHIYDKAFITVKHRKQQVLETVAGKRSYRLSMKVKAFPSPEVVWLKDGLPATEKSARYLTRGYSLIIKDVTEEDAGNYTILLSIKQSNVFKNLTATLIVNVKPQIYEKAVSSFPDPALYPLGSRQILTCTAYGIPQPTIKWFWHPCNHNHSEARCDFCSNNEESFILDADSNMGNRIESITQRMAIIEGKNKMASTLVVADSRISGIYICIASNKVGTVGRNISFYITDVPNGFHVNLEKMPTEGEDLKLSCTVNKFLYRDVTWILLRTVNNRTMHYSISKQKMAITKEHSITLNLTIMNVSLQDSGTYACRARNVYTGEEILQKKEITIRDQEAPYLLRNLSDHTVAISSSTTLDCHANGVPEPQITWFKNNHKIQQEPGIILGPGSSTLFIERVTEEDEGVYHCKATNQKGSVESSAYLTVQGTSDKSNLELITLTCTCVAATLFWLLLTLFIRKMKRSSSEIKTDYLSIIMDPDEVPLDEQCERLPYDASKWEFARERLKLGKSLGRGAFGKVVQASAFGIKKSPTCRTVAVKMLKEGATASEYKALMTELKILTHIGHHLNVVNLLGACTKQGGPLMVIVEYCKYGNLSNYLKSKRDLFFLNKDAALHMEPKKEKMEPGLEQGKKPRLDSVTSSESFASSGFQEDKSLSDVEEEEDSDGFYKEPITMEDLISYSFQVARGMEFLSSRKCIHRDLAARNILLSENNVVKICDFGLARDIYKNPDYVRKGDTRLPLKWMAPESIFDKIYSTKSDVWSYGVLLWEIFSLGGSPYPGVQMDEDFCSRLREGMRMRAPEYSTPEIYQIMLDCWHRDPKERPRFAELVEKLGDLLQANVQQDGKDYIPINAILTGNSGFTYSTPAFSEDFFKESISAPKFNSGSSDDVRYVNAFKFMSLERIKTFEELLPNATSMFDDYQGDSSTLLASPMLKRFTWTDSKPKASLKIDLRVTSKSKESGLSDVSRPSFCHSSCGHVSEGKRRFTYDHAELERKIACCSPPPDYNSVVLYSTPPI
Sequence of CHK2 (O96017 whole entry, species assumed): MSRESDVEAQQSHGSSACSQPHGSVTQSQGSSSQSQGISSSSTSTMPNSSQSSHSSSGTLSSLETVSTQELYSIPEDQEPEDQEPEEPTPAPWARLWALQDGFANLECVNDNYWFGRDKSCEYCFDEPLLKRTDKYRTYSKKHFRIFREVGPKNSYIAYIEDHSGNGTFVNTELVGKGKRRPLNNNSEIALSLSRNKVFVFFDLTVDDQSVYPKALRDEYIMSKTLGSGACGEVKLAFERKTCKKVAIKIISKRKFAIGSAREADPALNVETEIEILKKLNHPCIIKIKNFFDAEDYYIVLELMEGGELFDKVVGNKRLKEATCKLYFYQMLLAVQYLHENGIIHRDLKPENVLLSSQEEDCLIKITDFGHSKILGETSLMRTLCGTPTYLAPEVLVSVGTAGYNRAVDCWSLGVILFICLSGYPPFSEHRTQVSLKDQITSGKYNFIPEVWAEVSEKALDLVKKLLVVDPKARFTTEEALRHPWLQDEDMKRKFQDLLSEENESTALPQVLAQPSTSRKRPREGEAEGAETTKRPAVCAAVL
Sequence of MNK2 (Q9HBH9 whole entry, species assumed): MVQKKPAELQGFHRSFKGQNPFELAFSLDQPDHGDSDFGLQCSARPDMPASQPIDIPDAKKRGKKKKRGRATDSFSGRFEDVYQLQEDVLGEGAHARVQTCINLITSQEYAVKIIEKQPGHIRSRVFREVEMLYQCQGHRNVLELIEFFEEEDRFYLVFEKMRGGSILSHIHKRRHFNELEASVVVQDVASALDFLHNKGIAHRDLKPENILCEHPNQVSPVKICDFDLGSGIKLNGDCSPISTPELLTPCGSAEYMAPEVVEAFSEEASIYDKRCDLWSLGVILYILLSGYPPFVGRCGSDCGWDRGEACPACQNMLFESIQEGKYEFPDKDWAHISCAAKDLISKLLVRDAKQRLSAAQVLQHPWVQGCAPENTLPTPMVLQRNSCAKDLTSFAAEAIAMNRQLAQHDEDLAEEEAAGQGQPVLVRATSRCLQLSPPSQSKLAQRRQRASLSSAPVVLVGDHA
Sequence of Aurora B (Q96GD4 whole entry): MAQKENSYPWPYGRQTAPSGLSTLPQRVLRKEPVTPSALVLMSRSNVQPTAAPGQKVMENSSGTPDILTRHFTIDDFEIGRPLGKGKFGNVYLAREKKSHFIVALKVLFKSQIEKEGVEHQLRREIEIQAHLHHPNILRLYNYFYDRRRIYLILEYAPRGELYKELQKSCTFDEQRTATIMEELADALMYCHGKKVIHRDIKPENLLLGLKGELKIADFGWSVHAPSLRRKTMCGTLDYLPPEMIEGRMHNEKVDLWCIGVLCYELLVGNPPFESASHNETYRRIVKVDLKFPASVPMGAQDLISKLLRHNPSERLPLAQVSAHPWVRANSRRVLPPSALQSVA

O=C1Nc2ccccc2/C1=C1/Nc2ccccc2C1=O [Indirubin]
IC50 [1]: 42 ± 12 nM
IC50 [2]: 81 ± 19 nM

Cn1cc(C2=C(c3cn(CCCSC(=N)N)c4ccccc34)C(=O)NC2=O)c2ccccc21 [Ro318220]
IC50 [1, 12]: 120 ± 14 nM
IC50 [2, 13]: 1070 ± 210 nM

CCCCNc1ncnc2c1sc1nc3ccccc3cc12 [BPTQ, 4-butylaminopyrimido[4′,5′:4,5]thieno(2,3-b)quinoline]
Increase in caspase-3 activity relative to control [3]: about 2 fold
LDH release ([4]; HL-60, 10 μmol/L): did not induce LDH release
LDH release ([4]; HL-60, 50 μmol/L): increased the release of LDH
LDH release ([4]; HL-60, 100 μmol/L): increased the release of LDH
Sub G0/G1 cells ([5]; HL-60, 10 μmol/L, 48 h): 47%
Cell cycle arrest ([5]; HL-60, 48 h): did not induce any cell cycle arrest
activity at 1 µM ([1]; read-out: percent inhibition VEGFR1): 44%
Mitochondrial membrane potential (ΔΨm) [6]: striking fall in the membrane potential
activity at 1 µM [7]: 74%
activity at 1 µM [8]: 79%
activity at 1 µM ([2]; read-out: percent inhibition CHK2): 40%
Annexin V-FITC / propidium iodide staining (apoptosis) [9]: confirming the induction of apoptosis
Intracellular drug uptake [10]: dose dependent increase in the intracellular drug uptake
Cell cycle effect [11]: cell cycle arrest was observed

O=c1c(O)c(-c2cc(O)c(O)c(O)c2)oc2cc(O)cc(O)c12 [Myricetin]
IC50 [1]: 779 ± 173 nM

Oc1c2ccccc2c2c3c(cccc13)N=N2 [SP600125]
IC50 [1]: 335 ± 74 nM
IC50 [2]: 304 ± 94 nM

COC(=O)[C@@]1(O)C[C@H]2O[C@]1(C)n1c3ccccc3c3c4c(c5c6ccccc6n2c5c31)C(=O)NC4 [K252a]
IC50 [1, 12]: 13 ± 2 nM
IC50 [2, 13]: 23 ± 5 nM

— PMC5430831 (Acta Pharmaceutica Sinica. B, 2017)
